Reference: patent publication US20250213594A1 (priority 2023, published 2025)

How the values were obtained:
DHT = assay: Phase 1 clinical study: plasma DHT as pharmacodynamic marker; format: in vivo, human
[1] = parameters: species or system human; conditions: model estimate
Experimental: PK and PD modeling were performed to determine the therapeutic dose in AGA. A two-compartment PK model using observed clinical study data was adopted. […] The effective dose for additional clinical studies was estimated using established PK/PD models. All PK/PD modeling and simulations were performed using Phoenix WinNonlin, v.8.3.

[2] = male, human, in vivo, po, 1 mg
Experimental: (§1) A total of 40 non-smoking, healthy adult males were recruited for this study. Subjects who passed the screening process and were deemed eligible for the study were assigned to three groups. […] Each subject was followed up until day 43. In contrast, cohort 2 was divided into two groups. […] The subjects returned to the hospital according to a pre-determined schedule for 43 or 35 days and were assessed for tolerability, PK, and PD. […] In this study, the plasma drug concentration was analyzed on day 28 to investigate the comparative effect.
(§2) Whole blood was collected and centrifuged to obtain plasma. […] Maximum plasma concentration (Cmax), time to reach Cmax (Tmax), areas under the curve for 24 and 672 hours after dosing (AUC0-24, and AUC0-672), areas under the curve from time 0 to the last quantified concentration and to infinity (AUC0-t, and AUC0-inf), total plasma clearance, apparent total volume of distribution based on steady state or terminal phase, and elimination half-life were assessed.
(§3) PK analysis was based on a non-compartmental analysis approach and was performed in the PK population (patients who received at least one dose and had evaluable PK data). PK parameters were calculated using plasma concentrations and actual blood sampling times using Phoenix WinNonlin v. 8.3 (Certara, Princeton, NJ, USA) and summarized.

clinical = conditions: male, human, in vivo, po
Experimental: as §1, §2, §3

[3] = 1 mg finasteride tablets, previous clinical studies; cited from earlier work
[4] = format: in vivo, human; conditions: 1 mg QD oral 28 days, n = 10
Experimental: The study in the present disclosure was conducted in accordance with Therapeutic Goods Administration and Human Research Ethics Committee guidelines. The study was conducted at the Phase 1 Unit of Nucleus Network Pty Ltd in Brisbane, Australia from October 2021 to March 2022. The entire study was conducted in accordance with the provisions of the Declaration of Helsinki and Good Clinical Practice guidelines, and the protocol was registered at www.clinicaltrials.gov (NCT04945226; registration date: Jun. 30, 2021). Healthy men aged 18 to 55 years with a body mass index (BMI) of 18 to 32 kg/m^2 participated in this study. Potential subjects completed a signed informed consent form and were subjected to screening prior to the study. A total of 40 healthy, non-smoking adult men were included in the study across three cohorts (FIG. 1).
Each subject was followed up until day 43. In contrast, cohort 2 was divided into two groups.
Cohort 2 was divided into two groups. […]
The clinical status and vital signs of the subjects were evaluated before and after participation in the study to investigate adverse effects. Hematological parameters such as white blood cell, red blood cell, hemoglobin, hematocrit, and platelet counts were analyzed. Adverse effects (AEs) were recorded in terms of symptoms and signs, duration, intensity, relationship to study drug, action taken, outcome, and seriousness. […]

## CC(C)(C)NC(=O)[C@H]1CC[C@H]2[C@@H]3CC[C@H]4NC(=O)C=C[C@]4(C)[C@H]3CC[C@]12C [Finasteride]
DHT; 1 mg oral QD 28 days
  baseline-corrected median DHT values (%) at all time points: −74.04 to 3.58%
DHT; all concentrations of IVL3001, oral 1 mg tablets
  effect on DHT: inhibitory effect
[1]
  tvCL2 (clearance between central compartment and peripheral compartment): 18.9 L/h
  tvCL (clearance from central compartment): 18.4 L/h
[2]
  mean elimination half-life (t1/2el): 6.9 h
clinical; 1 mg, mean elimination half-life (t1/2el)
  half-life: 6.4 h
clinical; in vivo mean half-life
  half-life: ~6.4 h
[3]
  bioavailability: about 65%
[4]
  COVID-19: 0 n (%)
